In US12590062B2, “PD-1/PD-L1 inhibitors” (Gilead Sciences, Inc., priority 2017, dated 2026):
pEC50: −log10 of the molar value.

What follows are compounds tested against T1, PD-1/PD-L1 interaction (Homo sapiens, UniProt Q9NZQ7) (assay: PD-1/PD-L1 NFAT reporter co-culture assay). Conditions: not given.
T1 construct: expressed in transfected cells; host or cells: CHO cells (aAPC-PD-L1) co-cultured with Jurkat cells overexpressing PD-1 and an NFAT-luciferase reporter
Format: cell-based
Description: PD-1/PD-L1 NEAT Reporter Assay:
Compounds were tested in afunctional co-culture reporter assay in which TCR-mediated NFAT activity is inhibited by the engagement of PD-1 with PD-L1. […] CHO cells expressing surface-bound anti-CD3 antibodies and PD-L1 (artificial antigen presenting cells, aAPC-PD-L1) were first seeded overnight. Jurkat cells overexpressing PD-1 and expressing a luciferase construct under NFAT control are diluted in RPMI assay medium (RPMI 1640 with 2% FBS), mixed with compounds, and immediately seeded on the monolayer of aAPC-PD-L1. The co-culture is then incubated for 6 hrs at 37° C. Luciferase activity is assessed by adding the ONE-Glo reagent and measuring luminescence with a plate reader. EC50 values are calculated from the fit of the dose-response curves to a four-parameter equation (Table 3).

T1 sequence (Q9NZQ7 19-290): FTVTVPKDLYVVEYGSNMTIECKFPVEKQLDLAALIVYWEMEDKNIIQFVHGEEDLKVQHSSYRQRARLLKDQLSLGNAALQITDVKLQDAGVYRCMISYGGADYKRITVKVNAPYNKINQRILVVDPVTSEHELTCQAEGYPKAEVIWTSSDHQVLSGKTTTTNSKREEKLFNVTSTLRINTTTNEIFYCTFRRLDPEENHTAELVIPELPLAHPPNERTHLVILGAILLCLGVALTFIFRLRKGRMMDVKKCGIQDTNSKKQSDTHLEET

| Structure (SMILES) | pEC50 |
| --- | --- |
| COc1nc(OCc2cccc(-c3cccc(COc4nc(OC)c(CNCc5cc(O)no5)cc4Cl)c3C)c2C)c(Cl)cc1CNCc1cc(O)no1 [Example 63, 5,5′-(((((((2,2′-dimethyl-[1,1′-biphenyl]-3,3′-diyl)bis(methylene))bis(oxy))bis(5-chloro-2-methoxypyridine-6,3-diyl))bis(methylene))bis(azanediyl))bis(methylene))bis(isoxazol-3-ol)] | ≤ 4.30 |

Same assay, conditions: Jurkat PD-1 NFAT-luciferase cells co-cultured with aAPC-PD-L1 CHO cells, 6 hrs at 37° C.; read-out: EC50 NFAT Luciferase

| pEC50 | Structure (SMILES) |
| --- | --- |
| 4.83 | COc1nc(O[C@H]2CCc3c(-c4cccc(-c5ccc(OCCNC[C@@H](O)CC(=O)O)cc5)c4C)cccc32)ccc1CNCC(=O)O [Example 103, (S)-4-((2-((3′-((S)-1-((5-(((carboxymethyl)amino)methyl)-6-methoxypyridin-2-yl)oxy)-2,3-dihydro-1H-inden-4-yl)-2′-methyl-[1,1′-biphenyl]-4-yl)oxy)ethyl)amino)-3-hydroxybutanoic acid] |
| 5.01 | COc1nc(OCc2cccc(-c3cccc(COc4ccc(CNC[C@@H](O)CC(=O)O)c(OC)n4)c3F)c2C)ccc1CNC[C@@H](O)CC(=O)O [Example 285, (3S,3′S)-4,4′-((((((2-fluoro-2′-methyl-[1,1′-biphenyl]-3,3′-diyl)bis(methylene))bis(oxy))bis(2-methoxypyridine-6,3-diyl))bis(methylene))bis(azanediyl))bis(3-hydroxybutanoic acid)] |
| ≤ 4.30 | COc1nc(OCc2cccc(-c3cccc(COc4nc(OC)c(C(=O)NC[C@@H](O)CC(=O)O)cc4Cl)c3C)c2C)c(Cl)cc1C(=O)NC[C@@H](O)CC(=O)O [Example 237, (3S,3′S)-4,4′-((6,6′-(((2,2′-dimethyl-[1,1′-biphenyl]-3,3′-diyl)bis(methylene))bis(oxy))bis(5-chloro-2-methoxynicotinoyl))bis(azanediyl))bis(3-hydroxybutanoic acid)] |
| ≤ 4.30 | COc1nc(OCc2cccc(-c3cccc(COc4nc(OC)c(CNC5(C(=O)O)COC5)cc4Cl)c3C)c2C)c(Cl)cc1CNC1(C(=O)O)COC1 [Example 87, 3,3′-((((((2,2′-dimethyl-[1,1′-biphenyl]-3,3′-diyl)bis(methylene))bis(oxy))bis(5-chloro-2-methoxypyridine-6,3-diyl))bis(methylene))bis(azanediyl))bis(oxetane-3-carboxylic acid)] |
| 5.77 | COc1nc(OCc2cccc(-c3cccc(COc4nc(OC)c(CNC(C)(C)CC(=O)O)cc4Cl)c3C)c2C)c(Cl)cc1CNC(C)(C)CC(=O)O [Example 82, 3,3′-((((((2,2′-dimethyl-[1,1′-biphenyl]-3,3′-diyl)bis(methylene))bis(oxy))bis(5-chloro-2-methoxypyridine-6,3-diyl))bis(methylene))bis(azanediyl))bis(3-methylbutanoic acid)] |
| 6.29 | COc1nc(OCc2cccc(-c3cccc(COc4nc(OC)c(CNC[C@@H](O)CC(=O)O)cc4Br)c3Cl)c2Cl)ccc1CNC[C@@H](O)CC(=O)O [Example 190, (S)-4-(((6-((3′-(((3-Bromo-5-((((S)-3-carboxy-2-hydroxypropyl)amino)methyl)-6-methoxypyridin-2-yl)oxy)methyl)-2,2′-dichloro-[1,1′-biphenyl]-3-yl)methoxy)-2-methoxypyridin-3-yl)methyl)amino)-3-hydroxybutanoic acid] |
| 4.86 | Cc1c(COc2cc(OCc3cncc(C#N)c3)c(CNC[C@@H](O)CC(=O)O)cc2Cl)cccc1-c1ccc2c(c1)OC(CNC[C@@H](O)CC(=O)O)CO2 (stereo partly drawn) [Example 108, (3S)-4-((4-((3-(3-((((S)-3-carboxy-2-hydroxypropyl)amino)methyl)-2,3-dihydrobenzo[b] [1,4]dioxin-6-yl)-2-methylbenzyl)oxy)-5-chloro-2-((5-cyanopyridin-3-yl)methoxy)benzyl)amino)-3-hydroxybutanoic acid] |
| 7.29 | Cc1c(COc2nc(OCc3cc(C#N)cc(C#N)c3)c(CNC[C@@H](O)CC(=O)O)cc2Cl)cccc1-c1cccc(-c2ccc(OCCNCCO)cc2)c1C [Example 472] |
| 6.17 | Cc1c(COc2cc(OCc3cncc(C#N)c3)c(CNCC(C)(O)CC(=O)O)cc2Cl)cccc1-c1cccc(COc2cc(OCc3cncc(C#N)c3)c(CNCC(C)(O)CC(=O)O)cc2Cl)c1C (centres unmarked) [Example 218, 4,4′-((((((2,2′-dimethyl-[1,1′-biphenyl]-3,3′-diyl)bis(methylene))bis(oxy))bis(5-chloro-2-((5-cyanopyridin-3-yl)methoxy)-4,1-phenylene))bis(methylene))bis(azanediyl))bis(3-hydroxy-3-methylbutanoic acid)] |
| 6.62 | Cc1c(COc2nc(OCc3ccc(F)c(C#N)c3)c(CNC[C@@H](O)CC(=O)O)cc2Br)cccc1-c1cccc(COc2nc(OCc3ccc(F)c(C#N)c3)c(CNC[C@@H](O)CC(=O)O)cc2Br)c1C [Example 140, (3S,3′S)-4,4′-((((((2,2′-dimethyl-[1,1′-biphenyl]-3,3′-diyl)bis(methylene))bis(oxy))bis(5-bromo-2-((3-cyano-4-fluorobenzyl)oxy)pyridine-6,3-diyl))bis(methylene))bis(azanediyl))bis(3-hydroxybutanoic acid)] |

Second part, the compound before the results:

| Structure (SMILES) | pEC50 |
| --- | --- |
| COc1nc(OCc2cccc(-c3cccc(COc4nc(OC)c(CN5CCc6[nH]cnc6C5C(=O)O)cc4Cl)c3C)c2C)c(Cl)cc1CN1CCc2[nH]cnc2C1C(=O)O (centres unmarked) [Example 62, 5,5′-(((((2,2′-dimethyl-[1,1′-biphenyl]-3,3′-diyl)bis(methylene))bis(oxy))bis(5-chloro-2-methoxypyridine-6,3-diyl))bis(methylene))bis(4,5,6,7-tetrahydro-1H-imidazo[4,5-c]pyridine-4-carboxylic acid)] | 4.71 |
| COc1nc(OCc2cccc(-c3cccc(COc4nc(OC)c(CN5CC[C@H](O)C5)cc4Br)c3C)c2C)c(Br)cc1CN1CC[C@H](O)C1 [Example 244, (3S,3′S)-1,1′-(((((2,2′-dimethyl-[1,1′-biphenyl]-3,3′-diyl)bis(methylene))bis(oxy))bis(5-bromo-2-methoxypyridine-6,3-diyl))bis(methylene))bis(pyrrolidin-3-ol)] | 6.41 |
| COc1nc(OCc2cccc(-c3cccc(COc4nc(OC)c(CNCC(=O)NS(C)(=O)=O)cc4Cl)c3C)c2C)c(Cl)cc1CNCC(=O)NS(C)(=O)=O [Example 168, 2,2′-((((((2,2′-Dimethyl-[1,1′-biphenyl]-3,3′-diyl)bis(methylene))bis(oxy))bis(5-chloro-2-methoxypyridine-6,3-diyl))bis(methylene))bis(azanediyl))bis(N-(methylsulfonyl)acetamide)] | 6.51 |
| COc1nc(OCc2cccc(-c3cccc(COc4nc(OC)c([C@@H]5NCC[C@@H]5C(=O)O)cc4Cl)c3C)c2C)c(Cl)cc1[C@@H]1NCC[C@@H]1C(=O)O [Example 104, (2R,2′R,3S,3′S)-2,2′-((((2,2′-dimethyl-[1,1′-biphenyl]-3,3′-diyl)bis(methylene))bis(oxy))bis(5-chloro-2-methoxypyridine-6,3-diyl))bis(pyrrolidine-3-carboxylic acid)] | ≤ 4.30 |
| COc1nc(OCc2cccc(-c3cccc(COc4nc(OC)c(CN[C@@H]5CCC[C@@H]5C(=O)O)cc4Cl)c3C)c2C)c(Cl)cc1CN[C@@H]1CCC[C@@H]1C(=O)O [Example 79, (1S,1′S,2R,2′R)-2,2′-((((((2,2′-dimethyl-[1,1′-biphenyl]-3,3′-diyl)bis(methylene))bis(oxy))bis(5-chloro-2-methoxypyridine-6,3-diyl))bis(methylene))bis(azanediyl))bis(cyclopentane-1-carboxylicacid)] | 6.42 |
| COc1nc(OCc2cccc(-c3cccc(COc4nc(OC)c(CN[C@](C)(CO)C(=O)O)cc4Br)c3C)c2C)c(Br)cc1CN[C@](C)(CO)C(=O)O [Example 46, (2R,2′R)-2,2′-((((((2,2′-dimethyl-[1,1′-biphenyl]-3,3′-diyl)bis(methylene))bis(oxy))bis(5-bromo-2-methoxypyridine-6,3-diyl))bis(methylene))bis(azanediyl))bis(3-hydroxy-2-methylpropanoic acid)] | 7.06 |
| COc1nc(OCc2cccc(-c3cccc(COc4nc(OC)c(CN[C@H]5CCC[C@@H](C(=O)O)C5)cc4Cl)c3C)c2C)c(Cl)cc1CN[C@H]1CCC[C@@H](C(=O)O)C1 [Example 184, (1R,1′R,3S,3′S)-3,3′-((((((2,2′-dimethyl-[1,1′-biphenyl]-3,3′-diyl)bis(methylene))bis(oxy))bis(5-chloro-2-methoxypyridine-6,3-diyl))bis(methylene))bis(azanediyl))bis(cyclohexane-1-carboxylic acid)] | 5.86 |
| COC(=O)[C@@H](C)NCc1cc(Cl)c(OCc2cccc(-c3cccc(COc4nc(OC)c(CN[C@H](C)C(=O)OC)cc4Cl)c3C)c2C)nc1OC [Example 89, Dimethyl 2,2′-((((((2,2′-dimethyl-[1,1′-biphenyl]-3,3′-diyl)bis(methylene))bis(oxy))bis(5-chloro-2-methoxypyridine-6,3-diyl))bis(methylene))bis(azanediyl))(2R,2′R)-dipropionate] | 6.17 |
| COc1nc(OCc2cccc(-c3cccc(COc4nc(OC)c(CN[C@H]5CCC[C@@H]5O)cc4Cl)c3C)c2C)c(Cl)cc1CN[C@H]1CCC[C@@H]1O [Example 230, (1S,1′S,2S,2′S)-2,2′-((((((2,2′-dimethyl-[1,1′-biphenyl]-3,3′-diyl)bis(methylene))bis(oxy))bis(5-chloro-2-methoxypyridine-6,3-diyl))bis(methylene))bis(azanediyl))bis(cyclopentan-1-ol)] | 6.09 |
